The source of these data is publication PMC9850959 (European journal of medicinal chemistry, 2019).

Entries after “also recorded” stand apart in the source; their conditions may differ. Where a name gives a salt, the structure may show the parent alone.

The conditions of data set [1]: cited from earlier work.
The conditions of data set [2]: cited from earlier work. This is another data set of the same source.
The target of a further data set is T1, human nSMase2 (Homo sapiens, UniProt Q9NY59).
T1 sequence (Q9NY59 1-655): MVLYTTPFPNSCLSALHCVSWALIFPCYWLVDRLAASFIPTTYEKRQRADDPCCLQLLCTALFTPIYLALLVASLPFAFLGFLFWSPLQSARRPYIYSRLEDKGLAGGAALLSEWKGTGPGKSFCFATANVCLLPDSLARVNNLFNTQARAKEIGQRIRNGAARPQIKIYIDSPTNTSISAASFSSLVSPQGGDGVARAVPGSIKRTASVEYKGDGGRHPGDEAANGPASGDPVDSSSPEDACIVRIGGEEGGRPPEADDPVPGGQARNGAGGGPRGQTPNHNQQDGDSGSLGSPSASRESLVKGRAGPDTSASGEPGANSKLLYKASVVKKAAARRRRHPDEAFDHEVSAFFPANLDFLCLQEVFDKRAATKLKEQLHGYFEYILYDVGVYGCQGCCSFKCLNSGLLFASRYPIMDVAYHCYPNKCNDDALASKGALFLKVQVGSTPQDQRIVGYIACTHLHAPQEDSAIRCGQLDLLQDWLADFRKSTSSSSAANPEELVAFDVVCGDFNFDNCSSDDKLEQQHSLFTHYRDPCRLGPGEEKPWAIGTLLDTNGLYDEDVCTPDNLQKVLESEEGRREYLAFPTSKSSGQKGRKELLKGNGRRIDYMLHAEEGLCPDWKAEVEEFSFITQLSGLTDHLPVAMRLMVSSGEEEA
Description: fluorescence-based coupled nSMase2 assay. The format is biochemical. The settings on record: for nSMase2 inhibitory activity (in words): compared with DPTIP or parent analog.

The test system of data set [3] is AP, choline oxidase, and horseradish peroxidase. As to the kind of experiment: counter screen assay without nSMase2 and sphingomyelin, with phosphorylcholine. The class given is biochemical. Background: A counterscreen serves to expose hits that act by an unwanted route or on another target.
The nature of data set [4]: glucuronidation stability in mouse liver microsomes in the presence of UDPGA. The class given is in vitro ADME.
The nature of data set [5]: phase I metabolic stability in human liver microsomes. The class given is in vitro ADME. On the technique in general: Liver microsomes are a subcellular fraction often used to study metabolism.
Data set [6] can be described thus: phase I metabolic stability in mouse liver microsomes. The format is in vitro ADME.
Data set [7] can be described thus: oral pharmacokinetics in mice. The format is in vivo.
The test system of the next data set is nSMase2. The note with it: with respect to sphingomyelin; cited from earlier work.
Data set [8] concerns IL-1β-induced astrocyte-derived extracellular vesicle release. The settings on record: GFAP-GFP mice, brain injury model; cited from earlier work.
The test system of data set [9] is primary astrocyte cultures. The note with it: cited from earlier work.

`O=c1[nH]c(=S)[nH]c(-c2ccccc2)c1Cc1c(O)ccc2ccccc12` [Cambinol]: in data set [1], the “solubility compared to GW4869 (in words)” value is on record as “better solubility compared to GW4869”. In [2], the “metabolic stability (in words)” value was “metabolically unstable”. With `COc1cc(-c2ncc[nH]2)cc(OC)c1O` [Compound 3a, 4-(1H-Imidazol-2-yl)-2,6-dimethoxyphenol], the “loss of inhibitory potency relative to DPTIP” value at human nSMase2 was determined as 10 fold. For `Oc1ccc(-c2nc(-c3ccccc3)c(-c3cccs3)[nH]2)cc1` [Compound 6b, 4-(4-Phenyl-5-(thiophen-2-yl)-1H-imidazol-2-yl)phenol], the “inhibition in the counter assay (in words)” value in data set [3] is “no longer distinguishable”. Also, the “loss of inhibitory potency relative to DPTIP” value on human nSMase2 turned out to be 100 fold. `COc1cc(-c2nc(-c3ccccc3)c(-c3cccs3)[nH]2)cc(O)c1O` [Compound 6c, 3-Methoxy-5-(4-phenyl-5-(thiophen-2-yl)-1H-imidazol-2-yl)benzene-1,2-diol]: the “inhibition in the counter assay (in words)” value in data set [3] was “potent inhibition”. The same measure, in the same setting: the entry for `Oc1cc(-c2nc(-c3ccccc3)c(-c3cccs3)[nH]2)cc(O)c1O` [Compound 6d, 5-(4-Phenyl-5-(thiophen-2-yl)-1H-imidazol-2-yl)benzene-1,2,3-triol] is “potent inhibition”. For the compound `Oc1c(Cl)cc(-c2nc(-c3ccccc3)c(-c3cccs3)[nH]2)cc1Cl` [Compound 6e, 2,6-Dichloro-4-(4-phenyl-5-(thiophen-2-yl)-1H-imidazol-2-yl)phenol], the “nSMase2 inhibitory activity (in words)” value on human nSMase2 is reported as “complete loss of activity”. Still for that read-out and setting: the same measure for `COc1cc(-c2nc(-c3ccccc3)c(-c3cccs3)[nH]2)cc(OC)c1OC` [Compound 6g]: “completely inactive”; for `Oc1ccccc1-c1nc(-c2ccccc2)c(-c2cccs2)[nH]1` [Compound 6i]: “complete loss of potency”. Turning to `Oc1cccc(-c2nc(-c3ccccc3)c(-c3cccs3)[nH]2)c1` [Compound 6j], the “nSMase2 inhibitory activity (in words)” value at human nSMase2 is “complete loss of potency”. For `CC(C)Oc1cc(-c2nc(-c3ccccc3)c(-c3cccs3)[nH]2)cc(OC(C)C)c1O` [Compound 9b, 2,6-Diisopropoxy-4-(4-phenyl-5-(thiophen-2-yl)-1H-imidazol-2-yl)phenol], the “resistance to glucuronidation (in words)” value in data set [4] (mouse liver microsomes, UDPGA) is “completely resistant to glucuronidation; also recorded: complete resistance to glucuronidation”. As to `Oc1c(OC2CCCC2)cc(-c2nc(-c3ccccc3)c(-c3cccs3)[nH]2)cc1OC1CCCC1` [Compound 9c, 2,6-Bis(cyclopentyloxy)-4-(5-phenyl-4-(thiophen-2-yl)-1H-imidazol-2-yl)phenol], the “nSMase2 inhibitory activity (in words)” value on human nSMase2 is recorded as “decrease in potency”. Turning to `Oc1c(OCC(F)(F)F)cc(-c2nc(-c3ccccc3)c(-c3cccs3)[nH]2)cc1OCC(F)(F)F` [Compound 12, 4-(4-Phenyl-5-(thiophen-2-yl)-1H-imidazol-2-yl)-2,6-bis(2,2,2-trifluoroethoxy)phenol], the “phase I metabolic stability (in words)” value in data set [5] and in [6] was “metabolic stability was completely regained” each time. As for `CC(C)(C)Oc1cc(-c2nc(-c3ccccc3)c(-c3cccs3)[nH]2)cc(OC(C)(C)C)c1O` [Compound 16, 2,6-Di-t-butoxy-4-(4-phenyl-5-(thiophen-2-yl)-1H-imidazol-2-yl)phenol], on human nSMase2, the “nSMase2 inhibitory activity (in words)” value is recorded as “decrease in potency”.

In the case of `COc1cc(-c2nccs2)cc(OC)c1O` [Compound 19, 2,6-Dimethoxy-4-(thiazol-2-yl)phenol], on human nSMase2, the “nSMase2 inhibitory activity (in words)” value is “substantial decrease in potency”. With `COc1cc(C2=NCCN2)cc(OC)c1O` [Compound 22, 4-(4,5-Dihydro-1H-imidazol-2-yl)-2,6-dimethoxyphenol hydrochloride], on human nSMase2, the “nSMase2 inhibitory activity (in words)” value was “complete loss of potency”. Turning to `COc1cc(-c2nc(C(C)C)c(C(C)C)[nH]2)cc(OC)c1O` [Compound 25b, 4-(4,5-Diisopropyl-1H-imidazol-2-yl)-2,6-dimethoxyphenol hydrochloride], the “phase I metabolic stability (in words)” value in [5] and in data set [6] was “metabolically stable” throughout. For the same compound, the remaining at 1 h in data set [4] (mouse, liver microsomes, pH 7.5) was less than 20%. Also, in [7] (mouse plasma after oral administration), the “major metabolite in plasma” value is “glucuronide”. For the same compound, in [7] (oral administration, mice), the “plasma exposure compared to DPTIP (in words)” value is given as “higher plasma exposure; also recorded: superior plasma pharmacokinetics”. Besides, the “CNS penetration (in words)” value in data set [7] (oral, mice) is “negligible CNS penetration”. Consider `COc1cc(-c2nc(-c3cccs3)c(-c3ccccc3)[nH]2)cc(OC)c1O` [DPTIP, 2,6-dimethoxy-4-[4-phenyl-5-(2-thienyl)-1H-imidazol-2-yl]phenol], for which the “phase I metabolic stability (in words)” value in [5] and in data set [6] was “stable” each time. Moreover, the mechanism of inhibition result in the data set with nSMase2 is reported as “noncompetitive”. In addition, the “IL-1β-induced astrocyte-derived extracellular vesicle release (in words)” value in data set [8] is on record as “attenuate”. The “extracellular vesicle release (in words)” value in data set [9] is “dose-dependently inhibit extracellular vesicle release”. Besides, the “loss of the parent compound” value in [4] (mouse liver microsomes, UDPGA, 1 h) was 33%.

For `O=C(/C=C\c1ccc(/C=C\C(=O)Nc2ccc(C3=NCCN3)cc2)cc1)Nc1ccc(C2=NCCN2)cc1` [GW4869], in [1], the “aqueous solubility (in words)” value was “negligible aqueous solubility”.
